pIC50: −log10 of the molar value.
Biological target: T1, purified human HDAC6 (Homo sapiens, UniProt Q9UBN7)
T1 construct: purchased BPS Bioscience 5006
T1 sequence (Q9UBN7 1-1215): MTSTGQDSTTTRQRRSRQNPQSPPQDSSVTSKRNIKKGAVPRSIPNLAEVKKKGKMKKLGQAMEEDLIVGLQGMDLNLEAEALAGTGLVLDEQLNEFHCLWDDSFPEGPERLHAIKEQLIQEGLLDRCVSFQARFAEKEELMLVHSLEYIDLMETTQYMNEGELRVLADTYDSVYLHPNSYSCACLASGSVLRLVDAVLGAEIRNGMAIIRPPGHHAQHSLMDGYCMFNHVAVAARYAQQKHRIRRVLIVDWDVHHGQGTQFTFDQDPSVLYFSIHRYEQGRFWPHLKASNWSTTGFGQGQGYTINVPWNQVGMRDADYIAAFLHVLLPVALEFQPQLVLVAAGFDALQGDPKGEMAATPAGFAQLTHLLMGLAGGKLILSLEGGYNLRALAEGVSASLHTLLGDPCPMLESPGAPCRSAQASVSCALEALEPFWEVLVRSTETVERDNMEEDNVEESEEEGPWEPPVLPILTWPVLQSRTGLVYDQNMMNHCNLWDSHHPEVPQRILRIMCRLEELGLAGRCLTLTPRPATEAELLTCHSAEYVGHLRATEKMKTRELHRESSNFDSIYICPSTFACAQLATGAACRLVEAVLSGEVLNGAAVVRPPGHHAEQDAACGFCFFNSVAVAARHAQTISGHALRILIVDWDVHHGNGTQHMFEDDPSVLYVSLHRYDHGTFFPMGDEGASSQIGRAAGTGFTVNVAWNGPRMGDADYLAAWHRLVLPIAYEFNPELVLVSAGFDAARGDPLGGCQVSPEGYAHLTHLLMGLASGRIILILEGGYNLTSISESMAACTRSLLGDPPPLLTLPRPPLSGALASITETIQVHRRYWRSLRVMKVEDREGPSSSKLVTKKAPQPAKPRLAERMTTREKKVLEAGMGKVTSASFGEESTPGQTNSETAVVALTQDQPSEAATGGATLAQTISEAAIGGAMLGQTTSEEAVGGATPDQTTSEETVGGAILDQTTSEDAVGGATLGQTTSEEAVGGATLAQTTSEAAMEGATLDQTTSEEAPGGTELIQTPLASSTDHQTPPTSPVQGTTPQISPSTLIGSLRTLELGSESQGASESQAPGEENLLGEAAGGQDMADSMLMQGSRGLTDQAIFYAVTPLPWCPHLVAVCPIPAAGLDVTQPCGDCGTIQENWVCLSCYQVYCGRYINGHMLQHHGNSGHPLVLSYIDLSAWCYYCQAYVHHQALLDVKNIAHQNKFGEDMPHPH
Assay: HDAC6 enzyme assay
Assay type: biochemical
Procedure: To measure the inhibition of HDAC6 activity, purified human HDAC6 (BPS Bioscience; Cat. No. 5006) is incubated with substrate Ac-Arg-Gly-Lys(Ac)-AMC peptide (Bachem Biosciences; Cat. No. I-1925) for 1 hour at 30° C. in the presence of test compounds or vehicle DMSO control. The reaction is stopped with the HDAC inhibitor trichostatin A (Sigma; Cat. No. T8552) and the amount of Arg-Gly-Lys-AMC generated is quantitated by digestion with trypsin (Sigma; Cat. No. T1426) and subsequent measurement of the amount of AMC released using a fluorescent plate reader (Pherastar; BMG Technologies) set at Ex 340 nm and Em 460 nm. Concentration response curves are generated by calculating the fluorescence increase in test compound-treated samples relative to DMSO-treated controls, and enzyme inhibition (IC50) values are determined from those curves.

[1] = bins: greater than 1 μM and less than 10 μM, greater than 10 μM

Row | Structure (SMILES) | pIC50 (bin: less than 100 nM) | pIC50 [1]
1 | Cn1c(C(=O)N2CCn3nc(C(=O)NO)cc3C2)cc2ccccc21 [Compound I-31, N-hydroxy-5-[(1-methyl-1H-indol-2-yl)carbonyl]-4,5,6,7-tetrahydropyrazolo[1,5-a]pyrazine-2-carboxamide] | > 7.00 | 
2 | Cc1ccc2[nH]c(C(=O)N3CCn4cc(C(=O)NO)cc4C3)c(C)c2c1 [Compound I-28, 2-[(3,5-dimethyl-1H-indol-2-yl)carbonyl]-N-hydroxy-1,2,3,4-tetrahydropyrrolo[1,2-a]pyrazine-7-carboxamide] | > 7.00 | 
3 | O=C(NO)c1cc2n(c1)CCN(Cc1ccccc1)C2=O [Compound I-42, 2-benzyl-N-hydroxy-1-oxo-1,2,3,4-tetrahydropyrrolo[1,2-a]pyrazine-7-carboxamide] | > 7.00 | 
4 | CCc1cccc(CC)c1NC(=O)N1CCn2cc(C(=O)NO)nc2C1 [Compound I-115, N7-(2,6-diethylphenyl)-N2-hydroxy-5,6-dihydroimidazo[1,2-a]pyrazine-2,7(8H)-dicarboxamide] |  | 5.00 to 6.00
5 | Cn1c(C(=O)N2CCCn3nc(C(=O)NO)cc3C2)cc2ccccc21 [Compound I-105, N-hydroxy-5-[(1-methyl-1H-indol-2-yl)carbonyl]-5,6,7,8-tetrahydro-4H-pyrazolo[1,5-a][1,4]diazepine-2-carboxamide] |  | 5.00 to 6.00
6 | CCOCCN1CCn2nc(C(=O)NO)cc2C1=O [Compound I-88, 5-(2-ethoxyethyl)-N-hydroxy-4-oxo-4,5,6,7-tetrahydropyrazolo[1,5-a]pyrazine-2-carboxamide] |  | 5.00 to 6.00
7 | CC(C)(C(=O)N1CCn2nc(C(=O)NO)cc2C1)c1ccc(Cl)cc1 [Compound I-37, 5-[2-(4-chlorophenyl)-2-methylpropanoyl]-N-hydroxy-4,5,6,7-tetrahydropyrazolo[1,5-a]pyrazine-2-carboxamide] |  | 5.00 to 6.00
8 | Cn1nc(C(C)(C)C)cc1C(=O)N1CCCn2cc(C(=O)NO)cc2C1 [Compound I-63, 2-[(3-tert-butyl-1-methyl-1H-pyrazol-5-yl)carbonyl]-N-hydroxy-2,3,4,5-tetrahydro-1H-pyrrolo[1,2-a][1,4]diazepine-8-carboxamide] |  | 5.00 to 6.00
9 | CCC(C)NC(=O)N1CCn2cc(C(=O)NO)nc2C1 (centres unmarked) [Compound I-118, N7-(sec-butyl)-N2-hydroxy-5,6-dihydroimidazo[1,2-a]pyrazine-2,7(8H)-dicarboxamide] |  | 5.00 to 6.00
10 | O=C(NO)c1cc2n(c1)CCCN(C(=O)c1csc3ccccc13)C2 [Compound I-96, 2-(1-benzothien-3-ylcarbonyl)-N-hydroxy-2,3,4,5-tetrahydro-1H-pyrrolo[1,2-a][1,4]diazepine-8-carboxamide] |  | 5.00 to 6.00
11 | Cc1onc(-c2ccccc2)c1NC(=O)N1CCn2cc(C(=O)NO)nc2C1 [Compound I-122, N2-hydroxy-N7-(5-methyl-3-phenylisoxazol-4-yl)-5,6-dihydroimidazo[1,2-a]pyrazine-2,7(8H)-dicarboxamide] |  | 5.00 to 6.00
12 | CC(C)(C)C(=O)N1CCn2cc(C(=O)NO)nc2C1 [Compound I-41, 7-(2,2-dimethylpropanoyl)-N-hydroxy-5,6,7,8-tetrahydroimidazo[1,2-a]pyrazine-2-carboxamide] |  | 5.00 to 6.00
13 | O=C(NO)c1cn2c(n1)CN(C(=O)c1ccc(-c3ccccc3)cc1)CC2 [Compound I-2, 7-(biphenyl-4-ylcarbonyl)-N-hydroxy-5,6,7,8-tetrahydroimidazo[1,2-a]pyrazine-2-carboxamide] | > 7.00 | 
14 | O=C(NO)c1cc2n(c1)CCN(C(=O)c1cnn(-c3ccccc3)c1C(F)(F)F)C2 [Compound I-64, N-hydroxy-2-{[1-phenyl-5-(trifluoromethyl)-1H-pyrazol-4-yl]carbonyl}-1,2,3,4-tetrahydropyrrolo[1,2-a]pyrazine-7-carboxamide] |  | 5.00 to 6.00
15 | O=C(NO)c1cc2n(n1)CCN(C(=O)c1ccc(OCc3ccccc3)cc1)C2 [Compound I-17, 5-[4-(benzyloxy)benzoyl]-N-hydroxy-4,5,6,7-tetrahydropyrazolo[1,5-a]pyrazine-2-carboxamide] | > 7.00 | 
16 | O=C(NO)c1cc2n(c1)CCCN(C(=O)c1c(Cl)cccc1Cl)C2 [Compound I-79, 2-(2,6-dichlorobenzoyl)-N-hydroxy-2,3,4,5-tetrahydro-1H-pyrrolo[1,2-a][1,4]diazepine-8-carboxamide] |  | 5.00 to 6.00
17 | Cc1nc(C(=O)N2CCn3cc(C(=O)NO)nc3C2)cs1 [Compound I-55, N-hydroxy-7-[(2-methyl-1,3-thiazol-4-yl)carbonyl]-5,6,7,8-tetrahydroimidazo[1,2-a]pyrazine-2-carboxamide] |  | 5.00 to 6.00
